Among the data in US9187471B2, “Pyrido [4,3-b] indole and pyrido [3,4-b] indole derivatives and methods of use” (Medivation Technologies, Inc., priority 2010, dated 2015) are inhibition values, retold here.

Test [1] addresses T1, human recombinant serotonin (5-Hydroxytryptamine) 5-HT7 receptor (Homo sapiens, UniProt P34969).
T1 construct: expressed in transfected cells; host or cells: CHO
In words: Serotonin 5-HT7 radioligand binding ([3H]LSD). The note with it: compound at 0.1 μM; read-out: Inhibition of ligand binding, Serotonin 5-HT7 (percent inhibition of specific binding). On the procedure:
Lysergic acid diethylamide (LSD) for 120 min. at 25° C. […] Receptor proteins were filtered and washed, the filters were then counted to determine [^3H]LSD specifically bound.

Test [2] concerns the target T2, human recombinant serotonin (5-Hydroxytryptamine) 5-HT2A receptor (Homo sapiens, UniProt P28223).
T2 construct: expressed in transfected cells; host or cells: CHO-K1
In words: Serotonin 5-HT2A radioligand binding ([3H]Ketanserin). The note with it: compound at 0.1 μM; read-out: Inhibition of ligand binding, Serotonin 5-HT2A (percent inhibition of specific binding). On the procedure: Compounds of the invention were incubated with 0.5 nM [^3H]Ketanserin for 60 min at 25° C. Non-specific binding was estimated in the presence of 1 μM Mianserin. Receptor proteins were filtered and washed, the filters were then counted to determine [^3H]Ketanserin specifically bound.

In test [3] the target is T3, human recombinant adrenergic α2C receptor (Homo sapiens, UniProt P18825).
T3 construct: expressed in transfected cells; host or cells: insect Sf9 cells
T3 sequence (P18825 1-462): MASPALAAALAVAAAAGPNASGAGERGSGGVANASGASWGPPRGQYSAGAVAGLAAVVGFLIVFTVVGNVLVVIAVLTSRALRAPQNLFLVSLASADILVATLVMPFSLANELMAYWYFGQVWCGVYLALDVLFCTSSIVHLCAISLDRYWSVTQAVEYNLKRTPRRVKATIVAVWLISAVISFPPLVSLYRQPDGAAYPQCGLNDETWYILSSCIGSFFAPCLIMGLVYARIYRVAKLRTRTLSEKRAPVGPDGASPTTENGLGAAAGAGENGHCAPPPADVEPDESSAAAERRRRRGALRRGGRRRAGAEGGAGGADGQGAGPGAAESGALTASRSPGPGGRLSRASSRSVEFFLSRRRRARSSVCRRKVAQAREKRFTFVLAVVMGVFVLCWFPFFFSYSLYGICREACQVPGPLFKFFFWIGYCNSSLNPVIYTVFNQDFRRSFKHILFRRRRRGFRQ
In words: Adrenergic α2C radioligand binding ([3H]MK-912). The note with it: read-out: Adrenergic (0.1 μM) a2C, percent inhibition of specific binding; compound at 0.1 μM; 1 nM [3H]MK-912. Summed up: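 Membranes from Sf9 cells expressing the human receptor, in 50 mM Tris-HCl pH 7.4 with 12.5 mM MgCl2 and 2 mM EDTA, incubated with compound and 1 nM [3H]MK-912 for 60 min at 25 °C. Non-specific binding defined with 10 μM WB-4101. Filter-bound radioactivity counted; percent inhibition of specific binding reported.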

Test [4] concerns the target T4, human recombinant serotonin (5-Hydroxytryptamine) 5-HT6 receptor (Homo sapiens, UniProt P50406).
T4 construct: expressed in transfected cells; host or cells: HeLa
In words: Serotonin 5-HT6 radioligand binding ([3H]LSD). The note with it: compound at 0.1 μM; read-out: Inhibition of ligand binding, Serotonin 5-HT6 (percent inhibition of specific binding). The source says:
Receptor proteins were filtered and washed, the filters were then counted to determine [3H]LSD specifically bound.

For test [5], the target named is T5, human recombinant serotonin (5-Hydroxytryptamine) 5-HT5A receptor (Homo sapiens, UniProt P47898).
T5 construct: expressed in transfected cells; host or cells: CHO-K1
In words: Serotonin 5-HT5A radioligand binding ([3H]LSD). The note with it: compound at 0.1 μM; read-out: Inhibition of ligand binding, Serotonin 5-HT5A (percent inhibition of specific binding). On the procedure: Compounds of the invention were incubated with 1.7 nM [^3H]Lysergic acid diethylamide (LSD) for 60 min at 37° C. […] Receptor proteins were filtered and washed, the filters were counted to determine [^3H]LSD specifically bound.

Test [6] addresses T6, human recombinant dopamine D2L receptor (Homo sapiens, UniProt P14416).
T6 construct: expressed in transfected cells; host or cells: CHO
In words: Dopamine D2L radioligand binding ([3H]Spiperone). The note with it: read-out: Dopamine D2L (1 μM), percent inhibition of specific binding; compound at 1 μM; 0.16 nM [3H]Spiperone. The procedure:
Non-specific binding was estimated in the presence of 10 μM Haloperidol. Receptor proteins were filtered and washed, the filters were then counted to determine [^3H]Spiperone specifically bound.

The target in test [7] is T7, rat adrenergic α1A receptor (Rattus norvegicus, UniProt P43140).
T7 construct: rat adrenergic α1A receptor obtained from Wistar Rat submaxillary glands; from tissue; host or cells: Wistar rat submaxillary glands
T7 sequence (P43140 1-466): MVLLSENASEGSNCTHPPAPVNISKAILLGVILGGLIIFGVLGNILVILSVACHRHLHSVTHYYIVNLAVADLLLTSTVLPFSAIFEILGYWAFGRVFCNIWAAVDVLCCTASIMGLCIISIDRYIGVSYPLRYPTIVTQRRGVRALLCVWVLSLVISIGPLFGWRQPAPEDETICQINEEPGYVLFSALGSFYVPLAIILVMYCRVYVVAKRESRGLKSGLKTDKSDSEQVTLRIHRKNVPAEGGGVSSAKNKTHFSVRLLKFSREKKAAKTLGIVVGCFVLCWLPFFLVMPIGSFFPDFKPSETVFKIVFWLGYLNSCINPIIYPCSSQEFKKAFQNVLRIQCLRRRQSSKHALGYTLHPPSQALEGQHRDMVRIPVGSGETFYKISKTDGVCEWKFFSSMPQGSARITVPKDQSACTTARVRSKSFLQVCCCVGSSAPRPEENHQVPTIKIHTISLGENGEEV
In words: Adrenergic α1A radioligand binding ([3H]Prazosin). The note with it: read-out: Adrenergic (0.1 μM) a1A, percent inhibition of specific binding; compound at 0.1 μM; 0.25 nM [3H]Prazosin. Summed up: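 Wistar rat submaxillary gland receptor in 50 mM Tris-HCl pH 7.4 with 0.5 mM EDTA, incubated with compound and 0.25 nM [3H]Prazosin for 60 min at 25 °C.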

T1 sequence (P34969 whole entry): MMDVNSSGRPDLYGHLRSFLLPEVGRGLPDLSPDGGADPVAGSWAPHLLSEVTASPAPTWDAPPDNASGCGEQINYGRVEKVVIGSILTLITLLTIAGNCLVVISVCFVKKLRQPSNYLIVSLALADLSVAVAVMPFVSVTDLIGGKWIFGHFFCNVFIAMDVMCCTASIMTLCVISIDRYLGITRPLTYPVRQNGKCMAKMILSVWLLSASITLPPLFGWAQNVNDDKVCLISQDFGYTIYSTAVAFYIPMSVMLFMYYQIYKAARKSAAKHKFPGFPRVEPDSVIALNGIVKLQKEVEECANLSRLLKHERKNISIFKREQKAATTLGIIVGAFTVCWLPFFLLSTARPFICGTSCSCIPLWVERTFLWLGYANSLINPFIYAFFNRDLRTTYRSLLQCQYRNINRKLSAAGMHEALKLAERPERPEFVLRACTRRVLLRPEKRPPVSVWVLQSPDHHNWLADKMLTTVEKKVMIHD
T5 sequence (P47898 whole entry): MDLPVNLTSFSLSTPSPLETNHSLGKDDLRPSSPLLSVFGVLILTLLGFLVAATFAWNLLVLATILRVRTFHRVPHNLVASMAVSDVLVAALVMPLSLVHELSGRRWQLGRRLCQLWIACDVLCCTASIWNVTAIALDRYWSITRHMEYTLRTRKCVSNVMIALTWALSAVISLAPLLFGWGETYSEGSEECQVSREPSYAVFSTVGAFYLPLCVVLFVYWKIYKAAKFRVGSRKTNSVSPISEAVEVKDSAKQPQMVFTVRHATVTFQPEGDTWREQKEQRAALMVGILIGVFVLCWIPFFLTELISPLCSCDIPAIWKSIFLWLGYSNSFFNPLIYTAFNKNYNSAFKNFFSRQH
T2 sequence (P28223 whole entry): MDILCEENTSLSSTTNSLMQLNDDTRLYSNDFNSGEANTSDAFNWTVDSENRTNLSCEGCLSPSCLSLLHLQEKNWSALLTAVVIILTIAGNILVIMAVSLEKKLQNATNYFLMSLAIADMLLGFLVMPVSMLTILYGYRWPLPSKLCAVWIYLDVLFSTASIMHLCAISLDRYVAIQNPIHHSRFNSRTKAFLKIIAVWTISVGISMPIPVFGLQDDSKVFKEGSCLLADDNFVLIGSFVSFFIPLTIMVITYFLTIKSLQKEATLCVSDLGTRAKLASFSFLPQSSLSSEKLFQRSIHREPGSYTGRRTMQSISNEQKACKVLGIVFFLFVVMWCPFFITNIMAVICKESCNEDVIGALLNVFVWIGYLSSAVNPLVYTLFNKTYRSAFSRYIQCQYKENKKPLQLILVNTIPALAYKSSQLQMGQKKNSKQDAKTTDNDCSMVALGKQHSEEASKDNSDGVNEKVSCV
T4 sequence (P50406 whole entry): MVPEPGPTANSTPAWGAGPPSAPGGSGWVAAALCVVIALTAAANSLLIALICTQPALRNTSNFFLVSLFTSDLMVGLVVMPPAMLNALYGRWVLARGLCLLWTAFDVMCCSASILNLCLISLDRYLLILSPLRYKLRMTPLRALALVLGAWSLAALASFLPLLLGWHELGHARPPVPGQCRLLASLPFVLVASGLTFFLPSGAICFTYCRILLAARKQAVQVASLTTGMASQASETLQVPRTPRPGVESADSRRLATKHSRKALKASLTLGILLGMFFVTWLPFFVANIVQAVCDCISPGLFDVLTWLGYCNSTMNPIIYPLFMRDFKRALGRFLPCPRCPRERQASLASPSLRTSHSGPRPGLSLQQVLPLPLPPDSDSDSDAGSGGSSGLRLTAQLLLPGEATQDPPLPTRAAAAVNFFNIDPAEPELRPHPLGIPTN
T6 sequence (P14416 whole entry): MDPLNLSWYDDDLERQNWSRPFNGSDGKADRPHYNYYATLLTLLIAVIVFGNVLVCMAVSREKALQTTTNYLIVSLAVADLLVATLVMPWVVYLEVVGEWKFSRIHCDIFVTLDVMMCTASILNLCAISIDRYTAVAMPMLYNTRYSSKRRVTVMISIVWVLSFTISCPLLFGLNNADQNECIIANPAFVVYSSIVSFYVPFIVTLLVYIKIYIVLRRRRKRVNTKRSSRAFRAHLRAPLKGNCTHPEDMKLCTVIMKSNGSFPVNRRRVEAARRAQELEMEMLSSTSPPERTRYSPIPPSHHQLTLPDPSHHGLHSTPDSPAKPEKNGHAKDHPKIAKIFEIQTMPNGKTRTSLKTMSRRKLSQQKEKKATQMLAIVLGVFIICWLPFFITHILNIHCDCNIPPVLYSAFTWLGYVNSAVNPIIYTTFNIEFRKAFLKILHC

With `Cc1ccc2c(c1)c1c(n2-c2ccccc2-c2ccc(C)s2)CCN(C)C1` [Compound No. 81, 2,8-dimethyl-5-(2-(5-methylthiophen-2-yl)phenyl)-2,3,4,5-tetrahydro-1H-pyrido[4,3-b]indole], the inhibition (commonly the change of the read-out against control, counted positive when it falls) at 0.1 µM in test [1] was found to be 72%; in test [2] it was 87%; in test [3] it was 41%; in test [4], 44%; in test [5], 69%; in test [7], 34%. In addition, in test [6], the inhibition at 1 µM worked out at 19%.
Turning to `Cc1ccc2c(c1)c1c(n2-c2ccccc2-c2c(C)noc2C)CCN(C)C1` [Compound No. 82, 4-(2-(2,8-dimethyl-3,4-dihydro-1H-pyrido[4,3-b]indol-5(2H)-yl)phenyl)-3,5-dimethylisoxazole], the inhibition at 0.1 µM in test [1] is 24%; in test [2], 73%; in test [3] it was 7%; in test [4] it was 14%; in test [5] it was 9%; in test [7] it was 3%. For the same compound, in test [6], the inhibition at 1 µM was 9%.
For the compound `CC(=O)Nc1ccc(-c2ccccc2-n2c3c(c4cc(C)ccc42)CN(C)CC3)cn1` [Compound No. 83, N-(5-(2-(2,8-dimethyl-3,4-dihydro-1H-pyrido[4,3-b]indol-5(2H)-yl)phenyl)pyridin-2-yl)acetamide], the inhibition at 0.1 µM was 15% in test [1]; 41% in test [2]; -5% in test [3]; 3% in test [4]; 11% in test [5]; 23% in test [7]. Besides, the inhibition at 1 µM in test [6] amounted to 15%.
As to `Cc1ccc2c(c1)c1c(n2-c2ccccc2-c2ccc(F)nc2)CCN(C)C1` [Compound No. 84, 5-(2-(6-fluoropyridin-3-yl)phenyl)-2,8-dimethyl-2,3,4,5-tetrahydro-1H-pyrido[4,3-b]indole], the inhibition at 0.1 µM in test [1] was 25%; in test [2] it was 89%; in test [3], 23%; in test [4] it was 20%; in test [5], 29%; in test [7], 61%. In addition, in test [6], the inhibition at 1 µM was found to be 8%.
In the case of `Cc1ccc2c(c1)c1c(n2-c2ccccc2-c2ccc3c(ccn3C)c2)CCN(C)C1` [Compound No. 85, 2,8-dimethyl-5-(2-(1-methyl-1H-indol-5-yl)phenyl)-2,3,4,5-tetrahydro-1H-pyrido[4,3-b]indole], the inhibition at 0.1 µM in test [1] was 26%; in test [2] it was 49%; in test [3] it was 46%; in test [4], 49%; in test [5], 50%; in test [7], 24%. For the same compound, the inhibition at 1 µM in test [6] turned out to be 11%.
As for `Cc1ccc2c(c1)c1c(n2-c2cccc(-c3ccc(S(C)(=O)=O)cc3)c2)CCN(C)C1` [Compound No. 131, 2,8-dimethyl-5-(4′-(methylsulfonyl)biphenyl-3-yl)-2,3,4,5-tetrahydro-1H-pyrido[4,3-b]indole], the inhibition at 0.1 µM in test [1] was 2%; in test [2] it was 74%; in test [3] it was 13%; in test [4] it was -3%; in test [5], 19%; in test [7], 0%. Also, in test [6], the inhibition at 1 µM was 4%.
For `Cc1ccc2c(c1)c1c(n2-c2ccc(-c3ccncc3)cn2)CCN(C)C1` [Compound No. 132, 5-(3,4′-bipyridin-6-yl)-2,8-dimethyl-2,3,4,5-tetrahydro-1H-pyrido[4,3-b]indole], the inhibition at 0.1 µM in test [1] was 23%; in test [2], 83%; in test [3], -2%; in test [4] it was 2%; in test [5] it was 2%; in test [7], 11%. The inhibition at 1 µM in test [6] is 18%.
With `Cc1ccc2c(c1)c1c(n2-c2ccc(-c3cccnc3)cn2)CCN(C)C1` [Compound No. 133, 5-(3,3′-bipyridin-6-yl)-2,8-dimethyl-2,3,4,5-tetrahydro-1H-pyrido[4,3-b]indole], the inhibition at 0.1 µM turned out to be 21% in test [1]; 86% in test [2]; 0% in test [3]; 10% in test [4]; 6% in test [5]; 21% in test [7]. The inhibition at 1 µM in test [6] turned out to be 11%.
For `Cc1ccc2c(c1)c1c(n2-c2ccc(-c3cnn(C)c3)cn2)CCN(C)C1` [Compound No. 134, 2,8-dimethyl-5-(5-(1-methyl-1H-pyrazol-4-yl)pyridin-2-yl)-2,3,4,5-tetrahydro-1H-pyrido[4,3-b]indole], the inhibition at 0.1 µM in test [1] was 4%; in test [2] it was 88%; in test [3], -2%; in test [4] it was -2%; in test [5] it was -4%; in test [7] it was -2%. The inhibition at 1 µM in test [6] was 1%.
Regarding `Cc1ccc2c(c1)c1c(n2-c2ccc(-c3cncc4ccccc34)cn2)CCN(C)C1` [Compound No. 135, 5-(5-(isoquinolin-4-yl)pyridin-2-yl)-2,8-dimethyl-2,3,4,5-tetrahydro-1H-pyrido[4,3-b]indole], the inhibition at 0.1 µM came out at 22% in test [1]; 72% in test [2]; 13% in test [3]; 6% in test [4]; 77% in test [5]; 36% in test [7]. Besides, the inhibition at 1 µM in test [6] was determined as 12%.
On to `Cc1ccc2c(c1)c1c(n2-c2ccc(-c3ccc4c(ccn4C)c3)cn2)CCN(C)C1` [Compound No. 136, 2,8-dimethyl-5-(5-(1-methyl-1H-indol-5-yl)pyridin-2-yl)-2,3,4,5-tetrahydro-1H-pyrido[4,3-b]indole], for which the inhibition at 0.1 µM in test [1] was found to be 26%; in test [2] it was 98%; in test [3], 24%; in test [4] it was 10%; in test [5], 50%; in test [7], 20%. In addition, the inhibition at 1 µM in test [6] was 15%.
